# Test results reported in ChEMBL document CHEMBL5506022, “Discovery of Novel Dual Inhibitors Targeting Mutant IDH1 and NAMPT for the Treatment of Glioma with IDH1Mutation” (J Med Chem, 2024).
# The source made the active and inactive calls. The rule behind the calls is not given here.
# How the values were obtained:
# [1] = tested on: U-87 MG; assay type: functional, cell-based, U-87MG ATCC; conditions: Homo sapiens, 48 h
# [2] = biological target: Isocitrate dehydrogenase [NADP] cytoplasmic (Homo sapiens, UniProt O75874); assay: Inhibition of wildtype IDH1 (unknown origin) using DL-isocitrate as substrate incubated for 60 mins in presence of NADP by fluorescence microplate reader
# Isocitrate dehydrogenase [NADP] cytoplasmic (Homo sapiens, UniProt O75874), sequence (O75874 whole entry): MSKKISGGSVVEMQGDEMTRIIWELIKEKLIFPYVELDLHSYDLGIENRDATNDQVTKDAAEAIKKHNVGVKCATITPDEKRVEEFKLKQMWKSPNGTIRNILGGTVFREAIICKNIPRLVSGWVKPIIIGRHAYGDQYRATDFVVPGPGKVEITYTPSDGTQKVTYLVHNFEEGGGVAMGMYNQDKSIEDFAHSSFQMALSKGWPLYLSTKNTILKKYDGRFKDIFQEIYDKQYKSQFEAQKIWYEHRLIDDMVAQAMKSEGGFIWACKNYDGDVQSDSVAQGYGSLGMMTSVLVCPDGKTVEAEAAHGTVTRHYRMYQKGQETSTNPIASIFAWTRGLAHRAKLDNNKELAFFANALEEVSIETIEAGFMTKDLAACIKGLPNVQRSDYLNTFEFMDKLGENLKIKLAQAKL
# [3] = tested on: U-87 MG; assay: Antiproliferative activity against human U-87 MG cells harboring wildtype IDH1 assessed as inhibition of cell growth incubated for 24 hrs by CCK8 assay; assay type: functional, cell-based, U-87MG ATCC
# [4] = tested on: U-87 MG; assay type: functional, cell-based, U-87MG ATCC; conditions: Homo sapiens, 72 h
# [5] = tested on: U-87 MG; assay type: functional, cell-based, U-87MG ATCC; conditions: Homo sapiens, 24 h
# [6] = tested on: U-87 MG; assay: Antiproliferative activity against human U-87 MG cells harboring wildtype IDH1 assessed as inhibition of cell growth incubated for 72 hrs by CCK8 assay; assay type: functional, cell-based, U-87MG ATCC
# [7] = biological target: Nicotinamide phosphoribosyltransferase (Homo sapiens, UniProt P43490)
# Nicotinamide phosphoribosyltransferase, sequence (P43490 whole entry): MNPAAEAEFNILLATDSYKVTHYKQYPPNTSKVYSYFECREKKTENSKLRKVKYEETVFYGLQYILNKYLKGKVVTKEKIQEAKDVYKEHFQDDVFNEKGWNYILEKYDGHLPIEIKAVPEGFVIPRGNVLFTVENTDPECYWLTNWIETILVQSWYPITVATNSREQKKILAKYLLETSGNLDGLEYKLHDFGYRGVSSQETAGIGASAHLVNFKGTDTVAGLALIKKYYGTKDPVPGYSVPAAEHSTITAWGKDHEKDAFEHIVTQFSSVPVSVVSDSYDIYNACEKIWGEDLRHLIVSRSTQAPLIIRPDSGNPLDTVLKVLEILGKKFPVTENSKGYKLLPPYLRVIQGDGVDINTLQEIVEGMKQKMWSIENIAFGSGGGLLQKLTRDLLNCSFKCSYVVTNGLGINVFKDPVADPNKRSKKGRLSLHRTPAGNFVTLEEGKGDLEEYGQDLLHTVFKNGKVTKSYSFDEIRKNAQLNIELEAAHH
# [8] = tested on: U-87 MG; assay: Antiproliferative activity against human U-87 MG cells harboring wildtype IDH1 assessed as inhibition of cell growth incubated for 48 hrs by CCK8 assay; assay type: functional, cell-based, U-87MG ATCC
# [9] = biological target: Isocitrate dehydrogenase [NADP] cytoplasmic (Homo sapiens, UniProt O75874, R132C); assay: Inhibition of recombinant IDH1 R132C mutant (unknown origin) using alpha-ketoglutarate as substrate incubated for 60 mins in presence of NADPH by fluorescence microplate reader
# Isocitrate dehydrogenase [NADP] cytoplasmic (Homo sapiens, UniProt O75874, R132C), sequence (O75874 2-414 R132C limits assumed): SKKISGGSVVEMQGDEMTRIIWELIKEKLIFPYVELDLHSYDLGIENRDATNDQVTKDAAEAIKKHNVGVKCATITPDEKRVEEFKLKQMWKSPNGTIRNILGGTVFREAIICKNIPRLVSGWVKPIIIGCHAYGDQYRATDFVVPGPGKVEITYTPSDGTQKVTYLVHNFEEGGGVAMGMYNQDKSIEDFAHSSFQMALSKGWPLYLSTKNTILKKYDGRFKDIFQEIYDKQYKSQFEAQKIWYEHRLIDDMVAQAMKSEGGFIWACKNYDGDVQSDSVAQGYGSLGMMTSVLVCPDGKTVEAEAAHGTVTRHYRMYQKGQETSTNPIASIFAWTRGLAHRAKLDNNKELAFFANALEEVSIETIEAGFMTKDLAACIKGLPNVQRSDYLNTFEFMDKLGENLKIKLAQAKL
# [10] = tested on: U-87 MG; assay: Synergistic antiproliferative activity against human U-87 MG cells harboring wildtype IDH1 assessed as inhibition of cell growth incubated for 48 hrs in presence of AG-120 by CCK8 assay; assay type: functional, cell-based, U-87MG ATCC
# [11] = tested on: U-87 MG; assay type: functional, organism-based; conditions: Homo sapiens; U-87MG ATCC; dose 30.0 mg/kg, route ip, time 35.0 day
# [12] = tested on: U-87 MG; assay type: functional, cell-based, U-87MG ATCC; conditions: Homo sapiens, 48 h; remark: listed apart in the source
# [13] = tested on: U-87MG ATCC; assay: Effect on intracellular NADP+ level in human U-87 MG cells harboring wildtype IDH1; assay type: functional, cell-based
# [14] = tested on: U-87 MG; assay: cells; conditions: Homo sapiens, 48 h, read-out: Activity
# [15] = tested on: U-87 MG; assay: Synergistic antiproliferative activity against human U-87 MG cells harboring wildtype IDH1 assessed as inhibition of cell growth incubated for 48 hrs in presence of IDH305 by CCK8 assay; assay type: functional, cell-based, U-87MG ATCC
# [16] = tested on: U-87 MG; assay type: functional, cell-based, U-87MG ATCC; conditions: Homo sapiens, 48 h; remark: listed apart in the source
# [17] = tested on: U-87 MG; assay: cells; conditions: Homo sapiens, 48 h, read-out: Activity; remark: listed apart in the source
# [18] = tested on: U-87MG ATCC; assay type: functional, cell-based; conditions: Homo sapiens, dose 0.5 µM, time 48.0 hrs
# [19] = tested on: U-87 MG; assay type: functional, cell-based, U-87MG ATCC; conditions: Homo sapiens, 48 h; remark: listed apart in the source
# [20] = tested on: U-87 MG; assay: Synergistic antiproliferative activity against human U-87 MG cells harboring wildtype IDH1 assessed as inhibition of cell growth incubated for 48 hrs in presence of FK866 by CCK8 assay; assay type: functional, cell-based, U-87MG ATCC
# [21] = tested on: U-87 MG; assay type: functional, U-87MG ATCC; conditions: Homo sapiens, time 48 hrs, read-out: Activity
# [22] = tested on: U-87 MG; assay type: functional, Homo sapiens, U-87MG ATCC; conditions: dose 1 µM; time 48 hrs
# [23] = tested on: U-87 MG; assay type: functional, Homo sapiens, U-87MG ATCC; conditions: dose 1 µM; time 48 hrs; remark: listed apart in the source
# [24] = tested on: U-87 MG; assay type: functional, Homo sapiens, U-87MG ATCC; conditions: time 48 hrs
# [25] = tested on: U-87 MG; assay: Synergistic antiproliferative activity against human U-87 MG cells harboring wildtype IDH1 assessed as combination index incubated for 48 hrs in presence of FK866 by CCK8 assay; assay type: functional, U-87MG ATCC
# [26] = tested on: U-87 MG; assay type: functional, Homo sapiens, U-87MG ATCC; conditions: time 48 hrs; remark: listed apart in the source
# [27] = tested on: U-87 MG; assay type: functional, Homo sapiens, U-87MG ATCC; conditions: dose 1 µM; time 48 hrs; remark: listed apart in the source
Structure (SMILES),IC50 [2],IC50 [7],IC50 [9],also measured
CC(C)[C@H]1COC(=O)N1c1ccnc(N[C@@H](C)c2ccc(-c3ccc(NC(=O)c4ccc5nccn5c4)cc3)cc2)n1,9160 nM,193 nM,73.2 nM,IC50 [1]: 3260 nM; IC50 [3]: 2660 nM; IC50 [4]: 1460 nM; IC50 [5]: 3110 nM; IC50 [6]: 3260 nM; IC50 [8]: 1210 nM
CC(C)[C@H]1COC(=O)N1c1ccnc(N[C@@H](C)c2ccc(-c3ccc(NC(=O)c4cccnc4)cc3)cc2)n1,36700 nM,109 nM,509 nM,
C[C@H](Nc1nccc(N2C(=O)OC[C@@H]2Cc2ccccc2)n1)c1ccc(-c2ccc(NC(=O)COc3cccnc3)cc2)cc1,35900 nM,65.4 nM,294 nM,
C[C@H](Nc1nccc(N2C(=O)OC[C@@H]2[C@@H](C)OC(C)(C)C)n1)c1ccc(-c2ccc(NC(=O)/C=C/c3cccnc3)cc2)cc1,14700 nM,42.5 nM,78.7 nM,
CC(C)[C@H]1COC(=O)N1c1ccnc(N[C@@H](C)c2ccc(NC(=O)CCCNC(=O)/C=C/c3cccnc3)cc2)n1,9400 nM,45.7 nM,355 nM,
C[C@H](Nc1nccc(N2C(=O)OC[C@@H]2[C@H](C)F)n1)c1ccc(-c2ccc(NC(=O)/C=C/c3cccnc3)cc2)cc1,6850 nM,24.4 nM,59.3 nM,
CC(C)[C@H]1COC(=O)N1c1ccnc(N[C@@H](C)c2ccc(-c3ccc(NC(=O)c4cnc5[nH]ccc5c4)cc3)cc2)n1,6440 nM,162 nM,17.7 nM,
CC(C)[C@H]1COC(=O)N1c1ccnc(N[C@@H](C)c2ccc(-c3ccc(NC(=O)NCc4cccnc4)cc3)cc2)n1,27000 nM,374 nM,1020 nM,
C[C@H](Nc1nccc(N2C(=O)OC[C@@H]2[C@@H](C)O)n1)c1ccc(-c2ccc(NC(=O)/C=C/c3cccnc3)cc2)cc1,6460 nM,32.6 nM,57 nM,
C[C@H](Nc1nccc(N2C(=O)OC[C@@H]2[C@H](C)F)n1)c1ccc(-c2ccc(NC(=O)c3ccc4nccn4c3)cc2)cn1,26100 nM,24.3 nM,369 nM,
CC(C)[C@H]1COC(=O)N1c1ccnc(N[C@@H](C)c2ccc(NC(=O)C3CCN(C(=O)/C=C/c4cccnc4)CC3)cc2)n1,11100 nM,81.2 nM,308 nM,
CC(C)[C@H]1COC(=O)N1c1ccnc(N[C@@H](C)c2ccc(NC(=O)CCCCNC(=O)/C=C/c3cccnc3)cc2)n1,6180 nM,25.5 nM,405 nM,
C[C@H](Nc1nccc(N2C(=O)OC[C@@H]2[C@@H](C)OC(C)(C)C)n1)c1ccc(-c2ccc(NC(=O)c3ccc4nccn4c3)cc2)cc1,5790 nM,12.6 nM,57 nM,
C[C@H](Nc1nccc(N2C(=O)OC[C@@H]2Cc2ccccc2)n1)c1ccc(-c2ccc(NC(=O)/C=C/c3cccnc3)cc2)cc1,32800 nM,38 nM,130 nM,
C[C@H](Nc1nccc(N2C(=O)OC[C@@H]2[C@@H](C)OC(C)(C)C)n1)c1ccc(-c2ccc(NC(=O)COc3cccnc3)cc2)cc1,33900 nM,51.4 nM,252 nM,
CC(C)[C@H]1COC(=O)N1c1ccnc(N[C@@H](C)c2ccc(-c3ccc(NC(=O)COc4cccnc4)cc3)cc2)n1,8520 nM,33.1 nM,114 nM,IC50 [1]: 1180 nM; IC50 [3]: 1020 nM; IC50 [4]: 570 nM; IC50 [5]: 1660 nM; IC50 [6]: 540 nM; IC50 [8]: 890 nM

Structure (SMILES),IC50 [2],IC50 [7],IC50 [9],also measured
C[C@H](Nc1nccc(N2C(=O)OC[C@@H]2[C@H](C)F)n1)c1ccc(-c2ccc(NC(=O)c3ccc4nccn4c3)cc2)cc1,7330 nM,39.8 nM,231 nM,
C[C@H](Nc1nccc(N2C(=O)OC[C@@H]2c2ccccc2)n1)c1ccc(-c2ccc(NC(=O)/C=C/c3cccnc3)cc2)cc1,36500 nM,221 nM,147 nM,
CC(C)[C@H]1COC(=O)N1c1ccnc(N[C@@H](C)c2ccc(NC(=O)CCNC(=O)/C=C/c3cccnc3)cc2)n1,3240 nM,22.4 nM,284 nM,
CC(C)[C@H]1COC(=O)N1c1ccnc(N[C@@H](C)c2ccc(-c3ccc(NC(=O)c4cnccn4)cc3)cc2)n1,19700 nM,241 nM,579 nM,
O=C(/C=C/c1cccnc1)NCCCCC1CCN(C(=O)c2ccccc2)CC1 [DAPORINAD],,,,IC50 [10]: 2510 nM; Activity [11]: Active; IC50 [1]: 970 nM; IC50 [12]: 450 nM; Activity [13]: inactive; IC50 [3]: 5460 nM; viability at 1 µM [14]: 27.8%; IC50 [15]: 1690 nM; IC50 [16]: 560 nM; IC50 [4]: 410 nM; IC50 [5]: 1040 nM; viability at 1 µM [17]: 40.8%; IC50 [6]: 1630 nM; Activity [18]: inactive; IC50 [8]: 2550 nM
CC(C)[C@H]1COC(=O)N1c1ccnc(N[C@@H](C)c2ccc(-c3ccc(NC(=O)c4cc5ncccc5o4)cc3)cc2)n1,5720 nM,279 nM,232 nM,
N#Cc1ccnc(N2C(=O)CC[C@H]2C(=O)N(c2cncc(F)c2)[C@H](C(=O)NC2CC(F)(F)C2)c2ccccc2Cl)c1 [IVOSIDENIB],,,,IC50 [1]: 1020 nM; IC50 [19]: 560 nM; IC50 [20]: 2510 nM; IC50 [3]: 100000 nM; viability at 1 µM [21]: 27.8%; IC50 [4]: 980 nM; Activity [22]: 4.59%; Activity [23]: 49.6%; IC50 [5]: 3060 nM; viability at 1 µM [17]: 37.8%; CI [24]: 0.88; IC50 [6]: 67200 nM; CI [25]: 0.78; CI [26]: 0.88; IC50 [8]: 89300 nM; Activity [27]: 18%
CC(C)[C@H]1COC(=O)N1c1ccnc(N[C@@H](C)c2ccc(NC(=O)CNC(=O)/C=C/c3cccnc3)cc2)n1,4430 nM,15.1 nM,362 nM,
C[C@H](Nc1nccc(N2C(=O)OC[C@@H]2[C@@H](C)O)n1)c1ccc(-c2ccc(NC(=O)c3ccc4nccn4c3)cc2)cc1,15700 nM,24.8 nM,102 nM,
CC(C)[C@H]1COC(=O)N1c1ccnc(N[C@@H](C)c2ccc(-c3ccc(NC(=O)c4cc5cnccc5[nH]4)cc3)cc2)n1,9160 nM,127 nM,171 nM,
C[C@H](Nc1nccc(N2C(=O)OC[C@@H]2[C@H](C)F)n1)c1ccc(-c2ccc(NC(=O)COc3cccnc3)cc2)cn1,21100 nM,32.2 nM,419 nM,
C[C@H](Nc1nccc(N2C(=O)OC[C@@H]2Cc2ccccc2)n1)c1ccc(-c2ccc(NC(=O)c3ccc4nccn4c3)cc2)cc1,9740 nM,58.1 nM,77.4 nM,
C[C@H](Nc1nccc(N2C(=O)OC[C@@H]2[C@H](C)F)n1)c1ccc(-c2ccc(NC(=O)/C=C/c3cccnc3)cc2)cn1,14000 nM,53.2 nM,342 nM,
CC(C)[C@H]1COC(=O)N1c1ccnc(N[C@@H](C)c2ccc(NC(=O)C3CCN(C(=O)/C=C/c4cccnc4)C3)cc2)n1 (stereo not given in full),3710 nM,54.1 nM,430 nM,
C[C@H](Nc1nccc(N2C(=O)OC[C@@H]2[C@@H](C)O)n1)c1ccc(-c2ccc(NC(=O)COc3cccnc3)cc2)cc1,6940 nM,42.2 nM,138 nM,
